According to US20250280696A1, “FORMULATIONS AND USES THEREOF IN OPTOELECTRONIC FIELD” (Zhejiang Brilliant Optoelectronic Technology Co.,Ltd., priority 2022, published 2025):

Columns and labels:
Type in all cases: physicochemical
[1] = Solubility of compounds in toluene; conditions: per 100 g toluene
Protocol: The solubility of the compounds in the toluene were determined as follows: • 1. 1000 mg toluene was placed in the transparent glass sample bottle. • 2. A certain mass of the compound was added into the toluene, and oscillated until completely dissolved. • 3. After the compound was completely dissolved, a certain mass of the compound was further added into the toluene, and oscillated. • 4. The above steps were repeated until the compound wasn't dissolved any more. • 5. The total mass of the compound added was recorded and the solubility was obtained by calculation.

[2] = Absorption and emission spectrum in spin-coated film; conditions: for Red shift of the spectrum in the film relative to the solution: film vs toluene solution; for Absorption peak of the film / Emission peak of the film: spin-coated film on glass
Protocol: The Absorption and emission spectrums of the compounds in the film were determined as follows: • 1. The compound with a certain concentration in the toluene was prepared. • 2. The prepared toluene solution was dropped onto a clean glass substrate. • 3. Spin-coating, and then heating at the 80° C. for 1 min. • 4. The absorption spectrum of the film was measured by using an ultraviolet-visible spectrophotometer (Puxi T9s) to obtain the absorption peak wavelength. • 5. The emission spectrum of the film was measured by using a fluorescent spectroscope (Hitachi, F-4700 FL Spectrophotometer) to obtain the emission peak wavelength.
(§1) The extinction coefficients of the compounds and their absorption and emission peaks in the solution and film are shown in Table 3.

[3] = Absorption spectrum, emission spectrum and extinction coefficient in toluene solution; conditions: for Molar extinction coefficient of the toluene solution: at maximum absorption peak
Protocol: The extinction coefficients of the compounds and their absorption and emission spectrums in the solution were determined as follows: • 1. The compound with a certain amount of substance concentration in the toluene was prepared in a volumetric flask. • 2. The absorption spectrum of the solution was measured by using an ultraviolet-visible spectrophotometer (Puxi T9s) to obtain the absorption peak wavelength. • 3. The absorbance of the maximum absorption peak divided by the amount of substance concentration is the molar extinction coefficient of the compound. • 4. The emission spectrum of the solution was measured by using a fluorescent spectroscope (Hitachi, F-4700 FL Spectrophotometer) to obtain the emission peak wavelength.
as §1

[4] = UV stability of compounds in toluene (absorbance decay, t80); conditions: for Times t80: UV LEDs 365 nm & 255 nm, 12 cm, time until absorbance decayed to 80% of initial value
Protocol: The UV stability of the compounds were tested as follows:
The compound was dissolved in the toluene with a concentration of 1×10^5 mol/L. 3 mL solution was added to the cuvette with a lid and the lid was screwed on tightly, then the cuvette was placed in the ultraviolet-visible spectrophotometer to test the absorption spectrum, the absorbance of the maximum absorption peak was recorded as the initial value. The cuvette was placed at a distance of 12 cm from the UV LEDs (365 nm & 255 nm), irradiated for a period and tested its absorption spectrum, then continued to be irradiated after the test, and repeated until the absorbance decayed to 80% of its initial value, the time was recorded as t80.

| Structure (SMILES) | Solubilities(/100 g toluene) [1] | Red shift of the spectrum in the film relative to the solution [2] | Molar extinction coefficient of the toluene solution [3] | Absorption peak of the film [2] | Emission peak of the film [2] | Times t80 [4] | UV stability compared with the unfluorinated compound 20 ([4]; UV irradiation) | Absorption peak of the toluene solution [3] | Emission peak of the toluene solution [3] |
| --- | --- | --- | --- | --- | --- | --- | --- | --- | --- |
| Cc1cccc(C)c1N(c1ccc(C(F)(F)F)cc1)c1cc(N(c2ccc(C(F)(F)F)cc2)c2c(C)cccc2C)c2ccc3c(N(c4ccc(C(F)(F)F)cc4)c4c(C)cccc4C)cc(N(c4ccc(C(F)(F)F)cc4)c4c(C)cccc4C)c4ccc1c2c43 [Compound 15] | >4 g | – | – | – | – | – | – | – | – |
| Cc1ccccc1N(c1ccc(C(C)(C)C)cc1C)c1cc(N(c2ccccc2C)c2ccc(C(C)(C)C)cc2C)c2ccc3c(N(c4ccccc4C)c4ccc(C(C)(C)C)cc4C)cc(N(c4ccccc4C)c4ccc(C(C)(C)C)cc4C)c4ccc1c2c43 [Compound 12] | >3 g | – | – | – | – | – | – | – | – |
| CC(C)c1cccc(C(C)C)c1N(c1cc(C(C)(C)C)cc(C(C)(C)C)c1)c1cc(N(c2cc(C(C)(C)C)cc(C(C)(C)C)c2)c2c(C(C)C)cccc2C(C)C)c2ccc3c(N(c4cc(C(C)(C)C)cc(C(C)(C)C)c4)c4c(C(C)C)cccc4C(C)C)cc(N(c4cc(C(C)(C)C)cc(C(C)(C)C)c4)c4c(C(C)C)cccc4C(C)C)c4ccc1c2c43 [Compound 9] | >20 g | – | – | – | – | – | – | – | – |
| CCCCCCCCc1ccc(-c2cc(N(c3ccc(C(C)(C)C)cc3)c3ccc(C(C)(C)C)cc3)ccc2N(c2cc(F)c(F)c(F)c2)c2cc(N(c3cc(F)c(F)c(F)c3)c3ccc(N(c4ccc(C(C)(C)C)cc4)c4ccc(C(C)(C)C)cc4)cc3-c3ccc(CCCCCCCC)cc3)c3ccc4c(N(c5cc(F)c(F)c(F)c5)c5ccc(N(c6ccc(C(C)(C)C)cc6)c6ccc(C(C)(C)C)cc6)cc5-c5ccc(CCCCCCCC)cc5)cc(N(c5cc(F)c(F)c(F)c5)c5ccc(N(c6ccc(C(C)(C)C)cc6)c6ccc(C(C)(C)C)cc6)cc5-c5ccc(CCCCCCCC)cc5)c5ccc2c3c54)cc1 [Compound 25] | >10 g | very small red shift | 51000 L/mol | – | – | – | – | – | – |
| Fc1ccc(N(c2ccccc2)c2cc(N(c3ccccc3)c3ccc(F)cc3)c3ccc4c(N(c5ccccc5)c5ccc(F)cc5)cc(N(c5ccccc5)c5ccc(F)cc5)c5ccc2c3c54)cc1 [Compound 16] | >1.5 g | large red shift | 37000 L/mol | 469 nm | 551 nm | 227 min | greatly improved | 466 nm | 493 nm |
| Cc1cccc(C)c1N(c1ncc2ccccc2n1)c1cc(C(C)C)c2ccc3c(N(c4ncc5ccccc5n4)c4c(C)cccc4C)cc(C(C)C)c4ccc1c2c43 [Compound 19] | >1 g | – | – | – | – | – | – | – | – |
| Cc1cc2ccccc2cc1N(c1ccc(C(C)(C)C)cc1)c1cc(N(c2ccc(C(C)(C)C)cc2)c2cc3ccccc3cc2C)c2ccc3c(N(c4ccc(C(C)(C)C)cc4)c4cc5ccccc5cc4C)cc(N(c4ccc(C(C)(C)C)cc4)c4cc5ccccc5cc4C)c4ccc1c2c43 [Compound 13] | >2.5 g | – | – | – | – | – | – | – | – |
| CC(C)(C)c1ccc2c(c1)c1cc(C(C)(C)C)cc3c1n2-c1cccc2c1B3c1cc3c4ccccc4c4ccccc4c3c3c4c5c6ccccc6c6ccccc6c5ccc4n-2c13 [Compound E2, reference compound] | >0.7 g | – | 48000 L/mol | – | – | – | – | – | – |
| Cc1cccc(C)c1N(c1nc(-c2ccccc2)nc(-c2ccccc2)n1)c1cc(C(C)C)c2ccc3c(N(c4nc(-c5ccccc5)nc(-c5ccccc5)n4)c4c(C)cccc4C)cc(C(C)C)c4ccc1c2c43 [Compound 18] | >1 g | – | – | – | – | – | – | – | – |
| Cc1cc2ccccc2c(C)c1N(c1ccc(C(C)(C)C)cc1)c1cc(N(c2ccc(C(C)(C)C)cc2)c2c(C)cc3ccccc3c2C)c2ccc3c(N(c4ccc(C(C)(C)C)cc4)c4c(C)cc5ccccc5c4C)cc(N(c4ccc(C(C)(C)C)cc4)c4c(C)cc5ccccc5c4C)c4ccc1c2c43 [Compound 14] | >2 g | – | – | – | – | – | – | – | – |
| c1ccc(N(c2ccccc2)c2cc(N(c3ccccc3)c3ccccc3)c3ccc4c(N(c5ccccc5)c5ccccc5)cc(N(c5ccccc5)c5ccccc5)c5ccc2c3c54)cc1 [Compound 20] | >1.5 g | large red shift | 23000 L/mol | 482 nm | 561 nm | 188 min | – | 465 nm | 488 nm |
| Cc1cccc(C)c1N(c1cc(C(C)(C)C)cc(C(C)(C)C)c1)c1cc(N(c2cc(C(C)(C)C)cc(C(C)(C)C)c2)c2c(C)cccc2C)c2ccc3c(N(c4cc(C(C)(C)C)cc(C(C)(C)C)c4)c4c(C)cccc4C)cc(N(c4cc(C(C)(C)C)cc(C(C)(C)C)c4)c4c(C)cccc4C)c4ccc1c2c43 [Compound 7] | 4.6 g | very small red shift | 56000 L/mol | – | – | 280 min | – | – | – |
| Cc1cccc(C)c1N(c1ccc(C(C)(C)C)cc1)c1cc(N(c2ccc(C(C)(C)C)cc2)c2c(C)cccc2C)c2ccc3c(N(c4ccc(C(C)(C)C)cc4)c4c(C)cccc4C)cc(N(c4ccc(C(C)(C)C)cc4)c4c(C)cccc4C)c4ccc1c2c43 [Compound 4] | 4.2 g | very small red shift | 30000 L/mol | – | – | 195 min | – | – | – |
| CC(C)(C)c1ccc2c(c1)B1c3c(c4c5c(c3-n3c6ccc(C(C)(C)C)cc6c6cc(C(C)(C)C)cc1c63)Oc1ccc(C(C)(C)C)cc1B5c1cc(C(C)(C)C)cc3c5cc(C(C)(C)C)ccc5n-4c13)O2 [Compound E4, reference compound] | >0.7 g | – | 27000 L/mol | – | – | – | – | 589 nm | 613 nm |
| CCc1cccc(CC)c1N(c1ccc(C(C)(C)C)cc1)c1cc(N(c2ccc(C(C)(C)C)cc2)c2c(CC)cccc2CC)c2ccc3c(N(c4ccc(C(C)(C)C)cc4)c4c(CC)cccc4CC)cc(N(c4ccc(C(C)(C)C)cc4)c4c(CC)cccc4CC)c4ccc1c2c43 [Compound 11] | 25.9 g | very small red shift | 53000 L/mol | – | – | 257 min | – | – | – |
| CCCCCCCCc1ccc(N(c2ccc(C(C)C)cc2-c2cc(F)c(F)c(F)c2)c2cc(N(c3ccc(CCCCCCCC)cc3)c3ccc(C(C)C)cc3-c3cc(F)c(F)c(F)c3)c3ccc4c(N(c5ccc(CCCCCCCC)cc5)c5ccc(C(C)C)cc5-c5cc(F)c(F)c(F)c5)cc(N(c5ccc(CCCCCCCC)cc5)c5ccc(C(C)C)cc5-c5cc(F)c(F)c(F)c5)c5ccc2c3c54)cc1 [Compound 26] | >10 g | very small red shift | 55000 L/mol | – | – | 486 min | – | – | – |
| CCCCCCCCc1ccc(-c2cc(C(C)C)ccc2N(c2cc(F)c(F)c(F)c2)c2cc(N(c3cc(F)c(F)c(F)c3)c3ccc(C(C)C)cc3-c3ccc(CCCCCCCC)cc3)c3ccc4c(N(c5cc(F)c(F)c(F)c5)c5ccc(C(C)C)cc5-c5ccc(CCCCCCCC)cc5)cc(N(c5cc(F)c(F)c(F)c5)c5ccc(C(C)C)cc5-c5ccc(CCCCCCCC)cc5)c5ccc2c3c54)cc1 [Compound 22] | >15 g | very small red shift | 59000 L/mol | – | 490 nm | 377 min | – | – | – |
| CC(C)(C)c1ccc(N(c2ccccc2)c2cc(N(c3ccccc3)c3ccc(C(C)(C)C)cc3)c3ccc4c(N(c5ccccc5)c5ccc(C(C)(C)C)cc5)cc(N(c5ccccc5)c5ccc(C(C)(C)C)cc5)c5ccc2c3c54)cc1 [Compound 21] | >3 g | large red shift | 40000 L/mol | 472 nm | 546 nm | – | – | 469 nm | 495 nm |
| CC(C)c1cccc(C(C)C)c1N(c1ccc(C(C)(C)C)cc1)c1cc(N(c2ccc(C(C)(C)C)cc2)c2c(C(C)C)cccc2C(C)C)c2ccc3c(N(c4ccc(C(C)(C)C)cc4)c4c(C(C)C)cccc4C(C)C)cc(N(c4ccc(C(C)(C)C)cc4)c4c(C(C)C)cccc4C(C)C)c4ccc1c2c43 [Compound 8] | >20 g | – | – | – | – | – | – | – | – |
